Test results published in patent publication US6630125B2, “18F-labeled choline analogs” (priority 2000, dated 2003).
Like-named read-outs stand apart in the source and are kept apart here. One block for each compound: values may come before it.

Assays:
[1] = target: T1, yeast choline kinase (Saccharomyces cerevisiae, UniProt P20485); test: In vitro phosphorylation by yeast choline kinase; assay type: biochemical; conditions: 1 μM choline; for In vitro phosphorylation: 25 mU/ml yeast choline kinase, 23° C., 10 min, n = 5
T1 sequence (P20485 1-582): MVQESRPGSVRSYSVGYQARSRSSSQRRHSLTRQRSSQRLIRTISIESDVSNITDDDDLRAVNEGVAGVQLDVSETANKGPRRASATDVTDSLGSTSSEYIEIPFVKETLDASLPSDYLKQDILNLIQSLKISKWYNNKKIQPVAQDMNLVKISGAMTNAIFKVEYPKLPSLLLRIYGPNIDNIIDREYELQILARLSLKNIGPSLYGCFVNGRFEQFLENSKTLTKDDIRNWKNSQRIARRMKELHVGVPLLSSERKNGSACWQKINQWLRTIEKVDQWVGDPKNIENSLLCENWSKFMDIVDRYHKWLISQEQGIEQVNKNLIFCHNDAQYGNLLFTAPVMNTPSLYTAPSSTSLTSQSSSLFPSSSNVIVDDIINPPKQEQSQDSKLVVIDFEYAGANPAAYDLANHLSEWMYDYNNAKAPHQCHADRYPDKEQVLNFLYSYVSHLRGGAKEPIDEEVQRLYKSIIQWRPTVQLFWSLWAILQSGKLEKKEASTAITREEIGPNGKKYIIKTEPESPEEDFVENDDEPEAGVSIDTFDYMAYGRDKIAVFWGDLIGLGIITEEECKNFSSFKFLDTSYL
Procedure: The test tube was gently agitated throughout the incubation period. The reaction was stopped by placing the tube in a boiling water bath for 2 min. To serve as controls, some samples were placed directly in the boiling water bath after addition of all substrates. […] The percentage of radioactivity converted to the phosphorylated form was calculated.

[2] = tested on: normal human subjects; conditions: cited from earlier work
[3] = tested on: PC-3 human prostate cancer cells; test: Accumulation of radiotracers by cultured PC-3 cells; assay type: cell-based
Procedure: The incubation media utilized for the experiments differed according to the cancer cell type (Table 1). On the day of the study, the medium was refreshed using a volume of 1 ml in each well. Cells were incubated in control conditions or with the addition of metabolic and growth factor receptor inhibitors to test the sensitivity of uptake of the radiotracers to specific inhibitions. […] Following a 30-min incubation period, the radiotracers (e.g., FDG or FCH) were added (˜2 µCi/well) and the cells were incubated for 2 hr. The cells were washed three times with phosphate buffered saline solution, released from the plates by briefly incubating with 0.05% trypsin in DMEM, transferred to test tubes, and counted for F-18 radioactivity in a gamma counter. The amount of radioactivity in the cells was normalized by the dose administered to each well.
The present work studies the structure-activity relationships for purposes of optimization of the molecule for imaging prostate cancer. […] A number of structural analogs of choline were labeled as N-[^18F]fluoromethyl derivatives via the intermediate [^18F]fluorobromomethane (see Table 3). Uptake of the radiotracers was assessed in cultured PC-3 human prostate cancer cells and in a murine PC-3 xenograft model.

[4] = tested on: mice with PC-3 xenografts
Procedure: Body weight and tumor volume were measured weekly and tumor volume (mm3) was calculated using the formula S2×L/2, where S and L represent the small and large diameters of the tumor, respectively.
A prescribed duration of time was allowed before procurement of heart, liver, lung, blood, kidney, bone (femur), brain (whole), prostate gland, tumor, bladder, and skeletal muscle. The tissues were weighed, and counted for ^18F in a gamma counter, then dissolved in Solvable (Dupont, Boston Mass.) and counted for ^14C in a liquid scintillation counter. For the bladder, the percentage of the injected dose in the urine was determined. For all other tissues, radiotracer uptake was calculated as: […]

[5] = tested on: patients with breast cancer; test: PET imaging in patients with breast cancer; assay type: in vivo, human; conditions: person, metastatic breast cancer
Procedure: In breast cancer patients, whole-body PET scans were obtained, beginning at 10 min post-administration of FCH. In patients with brain tumors, PET scans of the brain were obtained, beginning at 5 min post-administration of FCH.
Thirteen patients with metastatic breast cancer and one patient with both primary and metastatic breast cancer were each imaged with both FCH-PET and FDG-PET within a period of less than one month.
A person had undergone re-excision of right breast intraductal carcinoma 4 yr prior, then right modified radical mastectomy 3 yr prior followed by tamoxifen chemotherapy. Six months prior to the PET scans, metastatic breast cancer was detected by palpation (right breast sternal mass) and CT (mediastinal and hilar adenopathies, mass in right anterior pelvis). Tamoxifen therapy was stopped. […] Uptake of FCH was also observed in the corresponding tumors: sternal mass (SUV=14.6), mediastinal and hilar adenopathies (SUVs˜8.5), pelvic mass (SUV=6.5). […] Smaller metastases were indicated on the FCH-PET scan in the right chest wall and left lung that were not seen on the FDG-PET scan. Concerning the anterior pelvic tumor, there was observed a homogenous distribution of FDG across the tumor in the FDG-PET scan, whereas the FCH was preferentially distributed on the periphery of the tumor.

[6] = tested on: patients with prostate cancer; test: PET imaging in patients with prostate cancer
Procedure: The distribution of FCH in PET imaging studies was evaluated in 14 patients with prostate cancer, 14 patients with breast cancer, and 5 patients with brain tumors. Imaging was performed using the Advance PET scanner (GE Medical Systems, Milwaukee, Wis.). […] In prostate cancer patients, a transmission scan of the pelvic region was obtained before administration of radiotracer. FCH (2.5-5 mCi) was administered intravenously, and dynamic imaging of the pelvis region was commenced for 20-30 min. During image reconstruction, the emission data in the pelvic region were corrected for photon attenuation using the transmission scan. Immediately following the dynamic scan, a whole-body emission scan was performed without transmission scanning for attenuation correction. The images were reconstructed using an Ordered Subset Expectation Maximum (OS-EM) algorithm. Regions-of-interest were drawn manually on the attenuation corrected images for evaluation of FCH kinetics in tissues. Standardized uptake values of FCH uptake in tissues were calculated using the attenuation-corrected images according to the equation: [formula]
Patient 2: Transmission and FCH emission scans of a person with hormone naive clinical stage T2 prostate cancer were commenced over the lower pelvis.
The same patient was scanned with FDG within the same week (FIG. 8).
Patient 4: A person with a history of clinical stage T3b prostate cancer treated by radical retropubic prostatectomy was diagnosed with metastatic disease by bone scan. FCH-PET imaging was performed before and after initiating androgen deprivation therapy. In the first study, whole-body emission scanning was started 5 min after injection, beginning at the pelvic region in order to image the pelvis and prostatic bed before arrival of urinary radioactivity. […] The patient was rescanned 2 weeks after initiating androgen deprivation therapy.
Patient 5: A person was initially diagnosed five years prior with locally advanced clinical stage T3NOMO prostate cancer and underwent radical prostatectomy followed by external beam radiation to the prostate bed. […] The patient was then treated with Zolex and Casodex.

[7] = tested on: BALB/c nude mice; test: Acute toxicity study in mice; assay type: in vivo; conditions: 1 mg/kg body weight
Procedure: Four unanesthetized BALB/c nude mice were administered 1 mg/kg [^19F]FCH via tail vein injection and monitored for 48 hr. This dose represented an approximately 300,000 fold excess of FCH in comparison to the normal dose that a 70 kg person would receive in a [^18F]FCH study. The mice were euthanized at 48 hr.
Acute toxicity of 1 mg/kg body weight of [^19F]FCH was determined in four untreated BALB/c mice. […] Based on estimates of specific activity of the [^18F]FCH (2 Ci/mmol), the normal dose of FCH in the radiotracer preparation would be a factor of 300,000 times lower than the dose given in this toxicity study.

[8] = tested on: PC-3 prostate cancer cells; test: Analysis of radiolabeled metabolites in PC-3 prostate cancer cells; assay type: cell-based, human; conditions: PC-3 cells, 2 hr
Procedure: The primary hydrophilic metabolites of choline in mammals is phosphocholine and betaine. […] The HPLC system used a microprocessor-controlled solvent delivery system and a silica column (Adsorbosphere Silica (10μ), 250×4.6 mm, Alltech, Deerfield, Ill.). The column was kept at room temperature and the flow rate was maintained at 1.5 ml/min. […] Fractions of effluent were collected every 0.5 min and first counted for ^18F-radioactivity in a well-counter for experiments involving [^18F]FCH, then transferred to scintillation vials for counting for ^14C-radioactivity. The column was equilibrated for 6 min with Buffer A before injection. After the injection (<100 μl), Buffer A was delivered for 6 min which eluted betaine (3 min) from the column. […] Re-equilibration of the column with 100% A for 6 min preceded the next injection.
Methanol (1 ml) was added to each well and the cells were lysed by maintaining the temperature at 37° C. for 30 min. The methanol phase was transferred to a glass test tube. Each well was rinsed with an additional 0.5 ml methanol which was added to the original fraction. To each tube, 3 ml chloroform and 1 ml 0.25 M sodium phosphate (pH=4.5) were added to separate lipids from water-soluble molecules. After vigorous mixing of the samples for 1 min, the two phases were separated, and a 0.5 ml aliquot of each phase was counted for ^18F and ^14C radioactivity. The aqueous phase was further analyzed for water-soluble metabolites using the gradient-HPLC method previously described.
Cells incubated in 6-well plates for 2 hr with radiotracers were thoroughly washed to remove all extracellular radioactivity. The cells were lysed in methanol and the methanol solution added to chloroform to solubilize all lipophilic metabolites.

Compound: C[N+](C)(CCO)CC[18F] [HARA-1, 2-[^18F]fluoroethyl-dimethyl-2-hydroxyethyl-ammonium, reference compound]
- phosphorylation rate, less than for FCH [1]: approximately 30%
- In vitro phosphorylation [1]: 43.4 ± 3.4 %
- urinary excretion compared with CH [2]: more prominent urinary excretion of radioactivity
- accumulation by cultured PC-3 cells compared with other tracers ([3]; control conditions): one fifth of the uptake of FCH
- Uptake by PC-3 cancer cells, Control ([3]; control, 2 hr incubation): 0.32 ± 0.05 % dose/2 hr/105 cells plated
- Uptake by PC-3 cells ([3]; inhibitor none): 0.322 ± 0.054 % dose/2 hr/10^5 cells plated

Compound: OC[C@H]1OC(O)[C@H]([18F])[C@@H](O)[C@@H]1O (some centres unmarked) [FDG, [^18F]fluoro-2-deoxy-glucose, reference compound]
- Uptake in Blood ([4]; 45 min): 2.8 ± 0.009 % dose kg/100 g
- Uptake in Brain ([4]; 45 min): 8.0 ± 0.7 % dose kg/100 g
- Uptake in Heart ([4]; 45 min): 48.2 ± 17.9 % dose kg/100 g
- Uptake in Kidney ([4]; 45 min): 5.3 ± 1.9 % dose kg/100 g
- Uptake in Liver ([4]; 45 min): 1.5 ± 0.4 % dose kg/100 g
- Uptake in Lung ([4]; 45 min): 7.4 ± 3.1 % dose kg/100 g
- Uptake in Prostate ([4]; 45 min): 2.3 ± 0.4 % dose kg/100 g
- Uptake in Skeletal Muscle ([4]; 45 min): 8.3 ± 0.4 % dose kg/100 g
- Uptake in Tumor ([4]; 45 min): 8.9 ± 0.7 % dose kg/100 g
- SUV of pelvic tumor / pelvic mass [5]: 9.5
- SUV of sternal mass [5]: 5.0
- SUVs of mediastinal and hilar adenopathies [5]: ~5.5
- SUV of osseous lesion (pubic ramus) ([6]; Example 11 patient, metastatic prostate cancer): 6.5
- SUV values relative to FCH in the same lesions ([6]; Patient 3): approximately one half
- SUV index in osseous lesions ([6]; patient #3, FIG. 8): 4.1

Compound: C[N+](C)(CF)CCO.[Cl-] [[^19F]FCH, Dimethylfluoromethyl-2-hydroxyethylammonium Chloride]
- behavioural/movement abnormalities ([7]; 48 hr monitoring): Neither were any behavioural/movement abnormalities observed
- deaths ([7]; tail vein, up to 48 hr, four mice): No deaths were observed

- In vitro phosphorylation [1]: 55.9 ± 11.0%
- Uptake in Blood ([4]; 10 min): 2.1 ± 0.3 % dose kg/100 g
- Uptake in Brain ([4]; 10 min): 1.4 ± 0.7 % dose kg/100 g
- Uptake in Heart ([4]; 10 min): 20.3 ± 7.2 % dose kg/100 g
- Uptake in Kidney ([4]; 10 min): 99.0 ± 12.9 % dose kg/100 g
- Uptake in Liver ([4]; 10 min): 52.3 ± 11.9 % dose kg/100 g
- Uptake in Lung ([4]; 10 min): 26.0 ± 9.6 % dose kg/100 g
- Uptake in Prostate ([4]; 10 min): 9.0 ± 6.8 % dose kg/100 g
- Uptake in Skeletal Muscle ([4]; 10 min): 4.7 ± 1.7 % dose kg/100 g
- Uptake in Tumor ([4]; 10 min): 3.2 ± 1.8 % dose kg/100 g
- Uptake in Blood ([4]; 30 min): 1.5 ± 0.9 % dose kg/100 g
- Uptake in Brain ([4]; 30 min): 1.0 ± 0.8 % dose kg/100 g
- Uptake in Heart ([4]; 30 min): 9.7 ± 1.9 % dose kg/100 g
- Uptake in Kidney ([4]; 30 min): 53.4 ± 7.3 % dose kg/100 g
- Uptake in Liver ([4]; 30 min): 65.2 ± 19.4 % dose kg/100 g
- Uptake in Lung ([4]; 30 min): 9.6 ± 6.6 % dose kg/100 g
- Uptake in Prostate ([4]; 30 min): 5.9 ± 2.5 % dose kg/100 g
- Uptake in Skeletal Muscle ([4]; 30 min): 2.5 ± 1.5 % dose kg/100 g
- Uptake in Tumor ([4]; 30 min): 4.8 ± 1.6 % dose kg/100 g
- Uptake in Blood ([4]; 60 min): 2.2 ± 1.0 % dose kg/100 g
- Uptake in Brain ([4]; 60 min): 1.7 ± 0.6 % dose kg/100 g
- Uptake in Heart ([4]; 60 min): 9.1 ± 2.5 % dose kg/100 g
- Uptake in Kidney ([4]; 60 min): 41.5 ± 15.0 % dose kg/100 g
- Uptake in Liver ([4]; 60 min): 67.1 ± 49.7 % dose kg/100 g
- Uptake in Lung ([4]; 60 min): 16.7 ± 3.7 % dose kg/100 g
- Uptake in Prostate ([4]; 60 min): 5.5 ± 2.6 % dose kg/100 g
- Uptake in Skeletal Muscle ([4]; 60 min): 2.8 ± 1.7 % dose kg/100 g
- Uptake in Tumor ([4]; 60 min): 6.7 ± 2.5 % dose kg/100 g
- injected dose in the urinary bladder ([4]; at 30 min): 1%
Compound: C[N+](C)(C)CCO [CH, [methyl-^14C]Choline, reference compound]
- oxidation in the cancer cells (betaine / fluorobetaine by HPLC) [8]: negligible
